Test results taken from ChEMBL document CHEMBL3431459, “Roche carnitine palmitoyltransferase modulator screening data (supplementary data associated with the publication CHEMBL2216752)”.
Converted amounts (≈) assume the structure as drawn.

Key:
[1] = target: T1, Carnitine O-palmitoyltransferase 1, muscle isoform (Homo sapiens, UniProt Q92523); test: SUPPLEMENTARY: Inhibition of Carnitine palmitoyltransferase 1, muscle isoform; set-up: species or system Muscle tissue
T1 sequence (Q92523 whole entry): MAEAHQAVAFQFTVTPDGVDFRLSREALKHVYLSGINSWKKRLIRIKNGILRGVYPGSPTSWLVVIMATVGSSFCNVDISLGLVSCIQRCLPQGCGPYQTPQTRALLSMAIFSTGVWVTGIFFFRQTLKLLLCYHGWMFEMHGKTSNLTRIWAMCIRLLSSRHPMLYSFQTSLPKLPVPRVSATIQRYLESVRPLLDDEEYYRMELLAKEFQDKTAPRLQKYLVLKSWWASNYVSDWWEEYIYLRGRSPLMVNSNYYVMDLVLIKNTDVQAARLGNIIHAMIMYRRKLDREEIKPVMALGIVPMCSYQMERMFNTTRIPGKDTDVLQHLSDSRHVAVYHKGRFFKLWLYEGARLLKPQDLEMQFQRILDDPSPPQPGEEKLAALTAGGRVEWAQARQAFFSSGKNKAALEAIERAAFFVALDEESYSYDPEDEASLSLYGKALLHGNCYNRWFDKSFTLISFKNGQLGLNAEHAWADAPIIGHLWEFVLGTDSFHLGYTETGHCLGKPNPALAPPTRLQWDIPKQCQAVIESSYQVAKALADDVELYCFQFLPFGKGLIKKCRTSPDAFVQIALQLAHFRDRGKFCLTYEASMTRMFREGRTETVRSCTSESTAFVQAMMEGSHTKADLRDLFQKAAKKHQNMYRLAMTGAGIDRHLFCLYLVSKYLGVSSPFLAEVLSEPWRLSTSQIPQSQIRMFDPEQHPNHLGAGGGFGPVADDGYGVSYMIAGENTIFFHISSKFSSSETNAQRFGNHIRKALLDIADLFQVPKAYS

[2] = target: T2, Carnitine O-palmitoyltransferase 2, mitochondrial (Homo sapiens, UniProt P23786); test: (§1) SUPPLEMENTARY: Inhibition of Carnitine palmitoyltransferase 2
T2 sequence (P23786 whole entry): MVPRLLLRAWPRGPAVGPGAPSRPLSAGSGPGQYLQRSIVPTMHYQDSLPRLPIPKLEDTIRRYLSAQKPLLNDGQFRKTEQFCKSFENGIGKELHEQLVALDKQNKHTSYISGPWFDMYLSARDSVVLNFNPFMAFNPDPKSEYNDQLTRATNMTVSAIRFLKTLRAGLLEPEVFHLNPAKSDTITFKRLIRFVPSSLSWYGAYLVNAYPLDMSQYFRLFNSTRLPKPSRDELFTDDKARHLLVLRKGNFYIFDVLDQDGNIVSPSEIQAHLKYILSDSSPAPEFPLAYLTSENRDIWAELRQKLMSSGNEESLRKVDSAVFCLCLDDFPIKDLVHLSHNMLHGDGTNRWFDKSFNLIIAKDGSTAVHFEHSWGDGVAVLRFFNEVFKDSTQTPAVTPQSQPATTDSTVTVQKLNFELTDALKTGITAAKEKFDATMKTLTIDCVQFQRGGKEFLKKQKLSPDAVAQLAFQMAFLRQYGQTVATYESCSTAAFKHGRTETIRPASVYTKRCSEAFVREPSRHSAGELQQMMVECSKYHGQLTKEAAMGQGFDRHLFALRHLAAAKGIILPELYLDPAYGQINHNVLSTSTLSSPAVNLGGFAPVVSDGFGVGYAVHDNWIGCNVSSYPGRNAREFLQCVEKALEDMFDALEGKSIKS

[3] = target: T3, Carnitine O-palmitoyltransferase 2, mitochondrial (Rattus norvegicus, UniProt P18886); test: as §1
T3 sequence (P18886 whole entry): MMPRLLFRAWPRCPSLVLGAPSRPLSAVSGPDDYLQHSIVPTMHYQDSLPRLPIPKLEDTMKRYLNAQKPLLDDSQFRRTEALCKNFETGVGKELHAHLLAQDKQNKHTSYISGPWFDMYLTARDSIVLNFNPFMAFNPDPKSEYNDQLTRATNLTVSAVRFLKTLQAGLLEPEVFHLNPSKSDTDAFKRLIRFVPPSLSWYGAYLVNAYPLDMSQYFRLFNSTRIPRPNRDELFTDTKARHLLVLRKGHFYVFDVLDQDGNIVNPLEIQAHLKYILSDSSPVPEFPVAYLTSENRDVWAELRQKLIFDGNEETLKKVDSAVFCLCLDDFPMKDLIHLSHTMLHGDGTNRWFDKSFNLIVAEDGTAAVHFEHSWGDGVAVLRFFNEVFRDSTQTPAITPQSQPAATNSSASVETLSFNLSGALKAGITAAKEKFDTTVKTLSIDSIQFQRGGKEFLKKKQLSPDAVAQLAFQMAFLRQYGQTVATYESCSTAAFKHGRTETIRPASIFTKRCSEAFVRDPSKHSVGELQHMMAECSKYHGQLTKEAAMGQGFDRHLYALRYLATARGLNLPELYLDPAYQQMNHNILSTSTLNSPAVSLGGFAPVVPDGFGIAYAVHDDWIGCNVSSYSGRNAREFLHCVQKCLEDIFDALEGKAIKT

[4] = target: T4, Carnitine O-palmitoyltransferase 1, liver isoform (Homo sapiens, UniProt P50416); test: (§2) SUPPLEMENTARY: Inhibition of Carnitine palmitoyltransferase 1, liver isoform
T4 sequence (P50416 whole entry): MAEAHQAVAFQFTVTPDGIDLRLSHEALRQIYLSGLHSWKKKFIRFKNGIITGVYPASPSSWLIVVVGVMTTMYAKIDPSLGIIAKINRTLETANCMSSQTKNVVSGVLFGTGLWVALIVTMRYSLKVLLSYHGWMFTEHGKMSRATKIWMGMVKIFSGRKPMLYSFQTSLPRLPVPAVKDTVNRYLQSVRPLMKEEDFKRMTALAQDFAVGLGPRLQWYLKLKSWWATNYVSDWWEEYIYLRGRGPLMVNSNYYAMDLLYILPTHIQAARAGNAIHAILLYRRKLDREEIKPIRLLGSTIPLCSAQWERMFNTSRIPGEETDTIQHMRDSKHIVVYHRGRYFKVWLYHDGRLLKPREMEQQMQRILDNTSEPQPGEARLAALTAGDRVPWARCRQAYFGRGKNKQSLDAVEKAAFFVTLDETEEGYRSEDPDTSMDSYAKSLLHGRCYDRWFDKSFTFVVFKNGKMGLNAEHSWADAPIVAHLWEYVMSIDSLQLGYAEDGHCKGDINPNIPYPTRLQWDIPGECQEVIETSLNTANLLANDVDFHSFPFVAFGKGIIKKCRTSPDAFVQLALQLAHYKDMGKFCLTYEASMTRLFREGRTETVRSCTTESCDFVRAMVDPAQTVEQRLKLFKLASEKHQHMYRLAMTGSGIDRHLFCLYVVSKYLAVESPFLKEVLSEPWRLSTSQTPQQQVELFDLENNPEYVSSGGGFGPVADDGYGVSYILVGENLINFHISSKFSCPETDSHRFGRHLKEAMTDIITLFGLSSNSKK

[5] = target: T5, Carnitine O-palmitoyltransferase 1, liver isoform (Rattus norvegicus, UniProt P32198); test: as §2
T5 sequence (P32198 whole entry): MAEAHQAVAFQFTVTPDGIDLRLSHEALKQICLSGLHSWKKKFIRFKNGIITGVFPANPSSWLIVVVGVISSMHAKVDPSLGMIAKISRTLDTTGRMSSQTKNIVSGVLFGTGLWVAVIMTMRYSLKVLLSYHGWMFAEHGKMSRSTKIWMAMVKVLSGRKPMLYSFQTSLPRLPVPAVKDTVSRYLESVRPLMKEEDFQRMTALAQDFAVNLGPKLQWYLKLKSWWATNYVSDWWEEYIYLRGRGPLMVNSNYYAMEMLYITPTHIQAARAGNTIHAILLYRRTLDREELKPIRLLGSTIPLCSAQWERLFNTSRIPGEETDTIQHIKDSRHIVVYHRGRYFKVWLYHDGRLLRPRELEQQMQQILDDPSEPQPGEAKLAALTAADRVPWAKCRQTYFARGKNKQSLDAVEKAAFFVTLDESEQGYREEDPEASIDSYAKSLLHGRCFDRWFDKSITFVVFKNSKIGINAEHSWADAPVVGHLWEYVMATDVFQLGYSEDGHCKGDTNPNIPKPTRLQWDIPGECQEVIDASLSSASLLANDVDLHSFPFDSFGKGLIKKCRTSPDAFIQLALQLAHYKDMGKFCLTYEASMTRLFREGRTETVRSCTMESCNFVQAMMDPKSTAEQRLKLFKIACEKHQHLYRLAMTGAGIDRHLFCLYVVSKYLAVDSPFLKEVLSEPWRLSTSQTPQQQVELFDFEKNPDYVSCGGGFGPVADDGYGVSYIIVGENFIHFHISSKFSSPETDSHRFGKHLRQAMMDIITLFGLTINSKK

[6] = SUPPLEMENTARY: Lyophilisation Solubility Assay (LYSA); format: physicochemical; conditions: read-out: Kinetic_solubility
[7] = SUPPLEMENTARY: Lipophilicity (log D) Determination by high-throughput shake-flask; format: physicochemical; conditions: octanol/water
[8] = SUPPLEMENTARY: PAMPA permeability assay; format: physicochemical; conditions: read-out: Permeability

SMILES | IC50 [1] [nM] | IC50 [2] [nM] | IC50 [3] [nM] | IC50 [4] [nM] | IC50 [5] [nM] | solubility kinetic [6] [µg/mL] | logD [7] | Papp [8] [×10⁻⁶ cm/s]
Cc1cc(C)cc(S(=O)(=O)N2CCOc3ccc(C(=O)Nc4nc(CC(=O)O)cs4)cc32)c1 | 797 | > 100000 | > 100000 | 42.4 | 31.9 | > 615 | 0.5 | 3.17
COc1ccc(Cl)cc1S(=O)(=O)n1ccc2ccc(C(=O)Nc3ccc(CC(=O)O)cc3)cc21 | 2210 | > 100000 | > 100000 | 206 | 82.8 | 61 (≈ 122 µM) | 1.1 | 1.98
COc1ccc(C)cc1S(=O)(=O)n1ccc2ccc(C(=O)Nc3ccc(CC(=O)O)cc3)cc21 | 1540 | 83900 | > 100000 | 203 | 118 | 226 (≈ 472 µM) | 0.79 | 2.82
Nc1ccc(-c2n[nH]c([C@H]3CCCCN3C(=O)COc3ccccc3)n2)cn1 | > 100000 | 45300 | 66000 | 286 | 865 | 111 (≈ 293 µM) | 1.92 | 3.97
Cn1cc(S(=O)(=O)c2cccc(Cl)c2)c2cc(C(=O)Nc3nc(CC(=O)O)cs3)ccc21 | 439 | > 100000 | > 100000 | 75.4 | 54.5 | 26 (≈ 53.1 µM) | 0.25 | 0.95
O=C(O)Cc1ccc(NC(=O)c2ccc3ccn(S(=O)(=O)c4cccc(Cl)c4)c3c2)cc1 | 1350 | > 100000 | > 100000 | 66.8 | 86.2 | 17 (≈ 36.3 µM) | 1.3 | 2.24
CC(=O)NCc1cccc(-c2n[nH]c([C@H]3CCCCN3C(=O)COc3ccccc3)n2)c1 | > 100000 | 54300 | > 100000 | 190 | 428 | 295 (≈ 680 µM) | 2.17 | 4.04
COc1ccc(C)cc1S(=O)(=O)N1CCc2ccc(C(=O)Nc3ccc(CC(=O)O)cc3)cc21 | 2210 | > 100000 | > 100000 | 237 | 174 | 93 (≈ 194 µM) | 0.11 | 2.21
Cc1cc(C)cc(S(=O)(=O)N2CCc3ccc(C(=O)Nc4ccc(CC(=O)O)cc4)cc32)c1 | 6790 | > 100000 | > 100000 | 187 | 133 | 5 (≈ 10.8 µM) | 2.42 | 4.05
O=C([C@H]1CCCCN1C(=O)COc1ccccc1)N1CCc2ccccc2C1 | > 100000 | 2060 | 3700 | 252 | 596 | 22 (≈ 58.1 µM) | 2.97 | 4.18
CCN(CC)C(=O)c1nc([C@H]2CCCCN2C(=O)COc2ccccc2)no1 | > 100000 | > 100000 | > 100000 | 283 | 936 | 143 (≈ 370 µM) | 2.36 | 11.5
